From ChEMBL document CHEMBL5532636 (Eur J Med Chem, 2023)

Assays:
[1] = tested on: SARS-CoV-2; assay: (§1) Antiviral activity against SARS-CoV-2 infected in human Calu-3 cells assessed as reduction in progeny virus yeild preincubated with cell culture for 1 hr and further infected with virus for 1 hr followed by replacement of medium containing compound measured after 2 days by qRT-PCR analysis; type: functional, organism-based; conditions: Severe acute respiratory syndrome coronavirus 2, Calu-3
[2] = tested on: SARS-CoV-2; assay: as §1, with “African green monkey Vero” for “human Calu-3”; type: functional, organism-based; conditions: Severe acute respiratory syndrome coronavirus 2, Vero

SMILES	EC50 [1]	EC50 [2]
O=c1cc(-c2ccccc2)oc2cc(O)c(O)c(O)c12 [BAICALEIN]	1.2 µM	
O=C(O)[C@H]1O[C@@H](Oc2cc3oc(-c4ccccc4)cc(=O)c3c(O)c2O)[C@H](O)[C@@H](O)[C@@H]1O [BAICALIN]		9 µM
